Data: patent US20220218719A1, “MATRIX COMPOSITION COMPRISING (S)-5-BENZYL-N-(5-METHYL-4-OXO-2,3,4,5-TETRAHYDROBENZO[B][1,4]OXAZEPIN-3-YL)-4H-1,2,4-TRIAZOLE-3-CARBOXAMIDE” (GLAXOSMITHKLINE INTELLECTUAL PROPERTY DEVELOPMENT LIMITED, priority 2019, published 2022)
Read-outs that look alike come from different tables or passages of the source.

Legend:
[1] = plasma/blood, 120 mg dose of IR formulation; cited from earlier work
[2] = Early clinical studies: PK profile of Compound 1 given as immediate release (IR) formulation; format: in vivo; settings: human, plasma, oral
Description: The formulations used in early clinical studies included a 0.1 mg/mL oral solution to support doses up to 5 mg; active-pharmaceutical-ingredient (API) in HPMC capsules for doses between 5 mg to 120 mg; and roller-compacted IR tablets of 10, 20 and 30 mg strength.
The pharmacokinetic (PK) profile of Compound 1 when administered as an immediate release (IR) formulation was characterized by rapid absorption and elimination with time to maximum concentration (Tmax) of approximately 2 hours post-dose. […] A majority of the systemic exposure to GSK2982772 was associated with the shorter half-life of 2-3 hours.

## CN1C(=O)[C@@H](NC(=O)c2nnc(Cc3ccccc3)[nH]2)COc2ccccc21 [Compound 1, (S)-5-benzyl-N-(5-methyl-4-oxo-2,3,4,5-tetrahydrobenzo[b][1,4]oxazepin-3-yl)-4H-1,2,4-triazole-3-carboxamide]
[1]
  t1/2: 2 to 3 h
[2]; phase until approximately 12 hours post-dose, read-out: elimination half-life (t1/2)
  half-life: 120 to 180 min
[2]; post-dose, read-out: time to maximum concentration (Tmax)
  Tmax: ~2 h
[2]; read-out: slower terminal phase t1/2
  half-life: 300 to 360 min
